The values that follow come from ChEMBL document CHEMBL1138501, “Structure-guided design, synthesis, and evaluation of salicylic acid-based inhibitors targeting a selectivity pocket in the active site of human 20alpha-hydroxysteroid dehydrogenase (AKR1C1)” (J Med Chem, 2009).

A short description of data set [1]: Cytotoxicity against BAEC assessed as cell viability at 10 uM. The format is cell-based, Bos taurus. As to conditions: cattle; call rule not given here.
Data set [2] deals with T1, Aldo-keto reductase family 1 member C3 (Homo sapiens, UniProt P42330).
T1 sequence (P42330 whole entry): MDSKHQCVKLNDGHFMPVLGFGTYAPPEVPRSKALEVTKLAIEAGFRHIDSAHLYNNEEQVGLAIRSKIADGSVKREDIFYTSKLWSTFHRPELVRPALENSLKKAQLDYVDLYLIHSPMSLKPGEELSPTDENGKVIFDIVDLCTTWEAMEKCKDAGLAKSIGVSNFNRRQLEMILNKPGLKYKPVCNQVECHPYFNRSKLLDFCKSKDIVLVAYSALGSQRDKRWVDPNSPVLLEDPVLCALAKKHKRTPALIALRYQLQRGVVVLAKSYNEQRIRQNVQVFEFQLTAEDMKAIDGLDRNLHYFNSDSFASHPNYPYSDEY
The data set is described as follows: Inhibition of human recombinant type 2 3-alpha-HSD expressed in Escherichia coli JM109.

Data set [3] deals with T2, Aldo-keto reductase family 1 member C4 (Homo sapiens, UniProt P17516).
T2 sequence (P17516 whole entry): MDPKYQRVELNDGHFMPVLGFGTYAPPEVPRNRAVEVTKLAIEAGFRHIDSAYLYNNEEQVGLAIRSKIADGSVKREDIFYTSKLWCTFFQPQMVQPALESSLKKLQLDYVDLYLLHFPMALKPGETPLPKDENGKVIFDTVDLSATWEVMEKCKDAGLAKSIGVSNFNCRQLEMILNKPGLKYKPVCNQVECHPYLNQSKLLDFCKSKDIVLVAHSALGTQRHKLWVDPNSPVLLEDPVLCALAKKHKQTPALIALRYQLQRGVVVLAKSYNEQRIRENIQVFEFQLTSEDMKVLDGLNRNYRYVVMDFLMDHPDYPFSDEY
The data set is described as follows: Inhibition of human recombinant type 1 3-alpha-HSD expressed in Escherichia coli JM109.

For data set [4], the target named is T3, Aldo-keto reductase family 1 member C1 (Homo sapiens, UniProt Q04828).
T3 sequence (Q04828 whole entry): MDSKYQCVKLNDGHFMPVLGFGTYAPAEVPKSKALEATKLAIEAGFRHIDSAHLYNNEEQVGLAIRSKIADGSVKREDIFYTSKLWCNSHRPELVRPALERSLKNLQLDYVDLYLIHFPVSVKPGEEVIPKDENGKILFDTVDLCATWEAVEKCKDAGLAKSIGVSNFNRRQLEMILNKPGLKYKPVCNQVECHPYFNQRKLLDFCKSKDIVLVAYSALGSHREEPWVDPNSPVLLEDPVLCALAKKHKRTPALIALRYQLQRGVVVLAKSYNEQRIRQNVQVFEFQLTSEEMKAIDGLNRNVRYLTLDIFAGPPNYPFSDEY
Description: Inhibition of human recombinant 20-alpha HSD expressed in Escherichia coli JM109

The target in data set [5] is T4, Aldo-keto reductase family 1 member C1 (Homo sapiens) (UniProt Q04828).
T4 sequence (whole entry): T3 sequence (Q04828 whole entry)
As to conditions: 10 uM.

The target in data set [6] is T3, Aldo-keto reductase family 1 member C1. The data set is described as follows: Inhibition of 20-alpha HSD.

Molecules are shown by their SMILES.

On to `O=C(O)c1cc(Br)cc(-c2ccccc2)c1O`, for which the Activity entry in data set [1] was “Non-toxic”. Besides, the results for the Ki in data set [2], in data set [3] and in data set [4] were 21 µM, “Not Active” and 0.14 µM, respectively. Besides, the inhibition in data set [5] is 40%.

For `O=C(O)c1cc(-c2ccccc2)cc(Br)c1O`, in data set [1], the Activity result was “Non-toxic”. Besides, the Ki in data set [2] was 4.2 µM; in data set [3] (read-out: Ki), 18.2 µM.

With `O=C1OC(c2cc(Br)c(O)c(Br)c2)(c2cc(Br)c(O)c(Br)c2)c2ccccc21`, the half-inhibitory concentration (IC50) in data set [6] came out at 0.033 µM.

For the compound `CCc1oc2ccccc2c1C(=O)c1cc(Br)c(O)c(Br)c1` [BENZBROMARONE], the 50% inhibitory concentration (IC50) in data set [6] was 0.048 µM.

Consider `O=C(O)c1cc(Br)cc(Br)c1O`, for which the Activity result in data set [1] is on record as “Non-toxic”. Also, the inhibition constant Ki in data set [2] is 23 µM; in data set [3] (read-out: Ki), 45.7 µM.

A word on the Ki: it is the equilibrium dissociation constant of an inhibitor or competing ligand from its target. As a reminder, the inhibition is the drop in the measured response relative to a control, in per cent. The low end stands for a weak effect, the high end for a strong effect. By IC50 is commonly meant the concentration needed to halve the response being measured. A high value points to lower potency.
